The nature of data set [1]: Antioxidant activity of compound in presence of SO4. The data set is classed as functional.
Data set [2] in a line: Antioxidant activity of compound in presence of CO3. The data set is classed as functional.
Data set [3] can be described thus: Antioxidant activity of compound in presence of HCHO. The format is functional.
Data set [4] can be described thus: Toxicity in BALB/c mouse implanted with mouse 4T1 cells assessed as heart damage at 5 mg/kg, iv measured for 11 days by H and E staining based analysis. The format is organism-based. The conditions noted are these: in vivo, 264 h, time 11 day.
Data set [5] is described as follows: Drug uptake in mouse 4T1 cells assessed as increase in green fluorescence intensity at 5 uM incubated for 30 mins by F-actin staining staining based microscopic analysis. The format is ADME, cell-based. The conditions noted are these: 4t1, 0.5 h.
A short description of data set [6]: Drug accumulation in BALB/c mouse tumor xenografted with human NCI-H520 cells assessed as increase in fluorescence intensity at 0.5 mg/kg, iv measured at 96 hrs by imaging based analysis. The data set is classed as ADME, organism-based, Neoplasm. The conditions noted are these: in vivo. In general terms: In xenograft studies the graft and the host belong to different species.

A short description of data set [7]: Solubility of compound in DMSO-H2O. The format is physicochemical.
A short description of data set [8]: Antioxidant activity of compound in presence of RSS. The format is functional.
Data set [9] in a line: Drug uptake in human NCI-H226 cells assessed as increase in red fluorescence intensity at 5 uM incubated for 30 mins by CY7 staining based microscopic analysis. The conditions noted are these: nci-h226, 0.5 h. The data set is classed as ADME, cell-based.
Data set [10] in a line: Partition coefficient, logP of compound. The data set is classed as physicochemical. The settings on record: octanol/water.
The nature of data set [11]: Drug uptake in human NCI-H226 cells assessed as increase in fluorescence intensity incubated for 24 hrs by fluorescence based microscopic analysis. The data set is classed as ADME, cell-based. The settings on record: nci-h226, 24 h.
Data set [12] is described as follows: Antioxidant activity of compound in presence of TBHP. The format is functional.
A short description of data set [13]: Antioxidant activity of compound in presence of L-Cysteine. The format is functional.
Data set [14] can be described thus: Drug uptake in human NCI-H226 cells assessed as increase in green fluorescence intensity at 5 uM incubated for 30 mins by F-actin staining staining based microscopic analysis. The data set is classed as ADME, cell-based. The settings on record: nci-h226, 0.5 h.
Data set [15] is described as follows: Antioxidant activity of compound in presence of NO2. The data set is classed as functional.
Data set [16] in a line: Toxicity in BALB/c mouse implanted with mouse 4T1 cells assessed as kidney damage at 5 mg/kg, iv measured for 11 days by H and E staining based analysis. The data set is classed as organism-based. The conditions noted are these: in vivo, 264 h, time 11 day.
Data set [17] is described as follows: Acute toxicity in BALB/c mouse implanted with mouse 4T1 cells at 5 mg/kg, iv measured for 11 days. The data set is classed as organism-based. The settings on record: in vivo, 264 h, time 11 day.

Calls of active or inactive are those of the source. The calls are words filed in the database; no cut-off is given here.

`CCCN1/C(=C/C=C2\CCCC(/C=C/C3=[N+](Cc4ccc(C(=O)O)cc4)c4ccccc4C3(C)C)=C2Cl)C(C)(C)c2ccccc21.[Br-]`: the result in [1], in data set [2], in [3], in data set [8], in data set [12] and in [13] was Active. Further, in data set [15], the outcome was Active. The Activity result in [4], in [16] and in [17] was “Non-toxic” in each case. For the same compound, the Drug uptake entry in data set [5], in [6], in data set [9], in data set [11] and in data set [14] was “Active” each time. Besides, the solubility (as a rule, the dissolved amount per volume that the medium holds) in data set [7] amounted to 170 µg/mL. For the same compound, the logP (in general, the decadic logarithm of the partition coefficient of the neutral form, usually between octanol and water) in data set [10] was 6.09.

These data come from ChEMBL document CHEMBL6134863, “Novel Mitochondria-Targeted Asymmetric Heptamethine Cyanine Dye for Cancer Targeted NIR Imaging and Potent Necrosis and Senescence Induction with Prolonged Retention” (J Med Chem, 2025).
